Results from patent US12042478B2, “(R)-2-[(2H-1,3-benzodioxol-5-yl)methyl]pyrrolidine and processes for preparation, compositions and uses thereof” (Pharmala Biotech Inc., priority 2022, dated 2024).
Entries after “also recorded” stand apart in the source; their conditions may differ.

Key:
Type in all cases: in vivo, mouse
C57 and BTBR mice [1] = test: Social preference procedure: novelty preference test; conditions: 1 mg/kg IP
Description: All drugs were dissolved in physiological 0.9% saline and administered at a constant volume of 1 ml/100 g body weight. Because all drugs utilized in these studies were synthesized as hydrochloride (HCl) salts, they were weighed as salts prior to the preparation of all solutions. All drugs at all concentrations are readily dissolved in an aqueous solution at normal pH. Injections of all drugs were administered intraperitoneally (IP) to mimic pharmacokinetic parameters typical of oral administration, without the behaviour-impairing effects of gavage stress.
This assay was conducted in adult male C57 and BTBR mice (n=6 per group) in a dedicated conditioning room where ambient light, sound, and human contact were tightly controlled.
Social preference chambers consisted of two polycarbonate boxes (13.5 cm wide×22.5 cm tall×31.0 cm deep), floored with rough-textured black ABS plastic, and connected to one another by a 1.25″ PVC T-junction. An infrared photobeam emitter/detector array was mounted at each intersection of the T-junction and each preference compartment, and as a mouse traversed the apparatus, it would break the photobeam upon entry to or exit from each preference compartment. Beam breaks started or stopped a counter on an interfaced computer, allowing automated collection of time spent in each compartment. At the end of each test, data were reported as time (in seconds) spent in each compartment, the number of entries into each compartment, and the average time spent in each compartment following an entry. Social preference tests were conducted in an iterative manner, with each test subject completing four distinct phases as described below. Between testing sessions, chambers were sanitized by wiping the insides with a disinfectant product provided by the UAMS Department of Laboratory Animal Medicine. At the end of the week (upon completion of all phases of the procedure), each apparatus was disassembled and all parts were sanitized. No food or water were available during social preference sessions, but were available in the home cage immediately afterwards. […]

C57 and BTBR mice [2] = test: Conditioned place preference; conditions: 1.0 mg/kg, x3 pairings, C57 mice
Description: The same 2-compartment chambers as described above in the social preference studies for conditioned place preference. For these studies, compartments are differentiated by floor texture (rough black plastic vs steel punch plate) and wall pattern (vertical vs. horizontal stripes.) An initial preference/habituation test was first run where mice were able to freely traverse the apparatus for 30 minutes. The following day, mice were assigned to receive saline in one compartment and drug in the other. Saline pairings occurred in the morning, drug pairings occurred in the afternoon, and were separated by at least 4 hours, during which time mice returned to their home cages. Three such pairings were performed, where mice were injected, returned to the home cage for a 15 min pretreatment period, then confined to the injection-appropriate compartment for 30 minutes. Half the subjects (within strain) received drug pairings on the plastic floor+vertical stripes side, and the other half received drug pairings on the punch plate floor+horizontal stripes side. […] The post-conditioning preference test was identical to the initial preference/habituation session, where mice were freely able to traverse the apparatus for 30 minutes. Time spent in each compartment was recorded, and expressed as a preference score for the drug paired side (calculated as time spent in that compartment during the post-test—time spent there during the pre-test.) All preference and conditioning sessions were conducted under the same low light conditions as in the social preference tests.

C57 and BTBR mice [3] = test: Radiotelemetry of core temperature; conditions: for core body temperature change: 5.6 mg/kg IP; for effect on core temperature: 10 mg/kg; for core temperature response, comparison of strains: C57 vs BTBR mice
Description: The radiotelemetry assay was conducted in adult male C57 and BTBR mice (n=6 per group) in a dedicated testing room where ambient light, sound, and human contact were tightly controlled.
Prior to surgical implantation of radiotelemetry probes, mice received 3 mg/kg meloxicam (IP), and anesthesia was induced with 4% inhaled isoflurane and maintained with 1-3% isoflurane (as needed) throughout the procedure at a flow rate of 1.5 litres/minute. The abdominal area of each animal was treated with depilatory cream, then sanitized with 3 alternating scrubs with iodine and alcohol. A rostral-caudal cut approximately 1.5 cm in length was made with sterile skin scissors, providing access to the intraperitoneal cavity. A cylindrical glass-encapsulated radiotelemetry probe (model ER-4000 E-Mitter, Mini Mitter, Bend, OR, USA) was then inserted. These probes measure 15.5 mm×6.5 mm and weigh approximately 1 gram. Incisions were closed (skin layer and muscle layer separately) using reverse cutting 5-0 Vicryl absorbable sutures for the muscle layer and 5-0 nylon suture material for the skin layer. Surgeries were carried out at least 7 days before initiation of experimental conditions, allowing time for incisions to heal and for animals to recover normal body weights. Following surgery, all implanted mice were individually housed in Plexiglas cages within the telemetry room for the duration of all experiments. Implanted transmitters produce activity- and temperature-modulated signals which are sent to a receiver (model ER-4000 Receiver, Mini Mitter Co., Inc.) underneath each cage. Following use, telemetry probes were removed from carcasses, wiped with alcohol swabs, and stored in the disinfectant solution until re-use.
At least 7 days after surgical implantation of radiotelemetry probes, mice in their individual home cages were placed atop a telemetry energizer/receiver, which powers probes and transmits their data to an interfaced computer. Upon initiation of an experimental session, the computer collects two data updates from the probes at 5 min intervals: core temperature (in ° C.) on one channel, and locomotor counts (in arbitrary units, depending on the relative position of the probe atop the receiver) on the other. After at least 60 minutes of baseline data collection, mice were removed from their cages, injected with saline or a given dose of a specific drug, then returned to the home cage 24 hours of data collection.
Food and water were always freely available in the home cage. Mice were injected with ascending doses of a given drug, with at least 48 hours separating doses. Because there are few studies of drug effects in BTBR mice, the first drug dose tested occasionally elicited unexpectedly large locomotor effects in these animals. In these cases, smaller drug doses were tested next, after a washout period of at least one full day.

Row | Compound | effect on novelty preference (time spent with dummy mouse) (C57 and BTBR mice [1]) | place conditioning (place preference) (C57 and BTBR mice [2]) | core body temperature change (C57 and BTBR mice [3]; C57 mice) | effect on core temperature (C57 and BTBR mice [3]; C57 and BTBR mice) | core temperature response, comparison of strains (C57 and BTBR mice [3]; IP) | core body temperature change (C57 and BTBR mice [3]; either mouse strain) | rise in core body temperature (C57 and BTBR mice [3]; IP, any of the doses tested, C57 and BTBR mice) | dose at which hypothermic effects are noted (C57 and BTBR mice [3]; IP, both strains) [mg/kg] | hypothermic effects after injection (C57 and BTBR mice [3]; IP, both strains, greater in C57 at 10, 18, 30 and 56 mg/kg)
1 | c1cc2c(cc1C[C@@H]1CCCN1)OCO2 [(S)-I, (S)-2-[(2H-1,3-benzodioxol-5-yl)methyl]pyrrolidine] | no systematic effects | neither 1.0 mg/kg (R)-I nor 1.0 mg/kg (S)-I elicited significant place preferences; also recorded: negligible effects | significant drop in temperature | hypothermic effect | more acute response in C57 mice | – | – | – | –
2 | c1cc2c(cc1C[C@H]1CCCN1)OCO2 [(R)-I, (R)-2-[(2H-1,3-benzodioxol-5-yl)methyl]pyrrolidine] | no systematic effects | neither 1.0 mg/kg (R)-I nor 1.0 mg/kg (S)-I elicited significant place preferences; also recorded: negligible effects | – | hypothermic effect | more acute response in C57 mice | did not elicit a rise or drop in core body temperature | did not result in a rise in core body temperature | ≥ 10 | dose-dependent hypothermic effects
